Oligonucleotides are written 5' to 3', each unit as a sugar letter and its base; * is a phosphorothioate linkage, no mark a phosphodiester; rarer units and linkages stand in square brackets, end groups in braces. Plain capitals give the bases only. {ppp} = triphosphate group; r = 2'-OH (RNA)

This series concerns human primary monocytes. Put plainly: IFN-α production in human primary monocytes transfected with RNA (ELISA). Format: cell-based. As to conditions: for IFN-α-inducing activity conferred by the 5′ 4-nucleotide sequence: adenosine-initiated in vitro transcribed RNA oligonucleotides, FIG. 13; for IFN-α induction (*100%) mean: monocytes from three donors, 36 hours after transfection, normalized to the mean induction level of all oligonucleotides (=100%); for IFN-α production in monocytes: 200 ng RNA transfected, ELISA. On the technique in general: ELISA stands for enzyme-linked immunosorbent assay.

Turning to “aacaggggac acacacacac acacacacac (AACAGGGGACACACACACACACACACACAC; RNA, 5' {ppp}, backbone not given here) [SEQ ID No. 166]”, the “IFN-α-inducing activity conferred by the 5′ 4-nucleotide sequence” value (“IFN-α-inducing activity conferred” below) is reported as “highest IFN-α-inducing activity” and the “IFN-α induction (*100%) mean” value is listed as 1.30 *100%.

For “aucuggggac acacacacac acacacacac (AUCUGGGGACACACACACACACACACACAC; RNA, 5' {ppp}, backbone not given here) [SEQ ID No. 133]”, the “IFN-α induction (*100%) mean” value was 0.94 *100%.

Regarding “5′-PPPGGG AGACAGGUUUUUUUUUUUUUUUUUUUUU-3′ (GGGAGACAGGUUUUUUUUUUUUUUUUUUUUU; RNA, 5' {ppp}, backbone not given here) [tri-poly U]”, the “IFN-α production in monocytes” value (24 hours) is reported as “equally potent”.

For the substance “acuuggggac acacacacac acacacacac (ACUUGGGGACACACACACACACACACACAC; RNA, 5' {ppp}, backbone not given here) [SEQ ID No. 118]”, the “IFN-α induction (*100%) mean” value was 0.66 *100%.

Take “acggggggac acacacacac acacacacac (ACGGGGGGACACACACACACACACACACAC; RNA, 5' {ppp}, backbone not given here) [SEQ ID No. 145]”: the “IFN-α-inducing activity conferred” value is “highest IFN-α-inducing activity” and the “IFN-α induction (*100%) mean” value is listed as 1.03 *100%.

“5′-pppGCUUAACCUGUCCUUCAAU-3′ [RNA9.2s-1G]”: the “reduction in IFN-α induction compared with RNA9.2s-0A” value (monocytes, 200 ng, 24 hours) was “approximately 25%”.

On to “auagggggac acacacacac acacacacac (AUAGGGGGACACACACACACACACACACAC; RNA, 5' {ppp}, backbone not given here) [SEQ ID No. 123]”, for which the “IFN-α induction (*100%) mean” value is reported as 0.76 *100%.

“agcuggggac acacacacac acacacacac (AGCUGGGGACACACACACACACACACACAC; RNA, 5' {ppp}, backbone not given here) [SEQ ID No. 120]”: the “IFN-α induction (*100%) mean” value is listed as 0.69 *100%.

Turning to “accuggggac acacacacac acacacacac (ACCUGGGGACACACACACACACACACACAC; RNA, 5' {ppp}, backbone not given here) [SEQ ID No. 124]”, the “IFN-α induction (*100%) mean” value was 0.76 *100%.

As to “agcgggggac acacacacac acacacacac (AGCGGGGGACACACACACACACACACACAC; RNA, 5' {ppp}, backbone not given here) [SEQ ID No. 115]”, the “IFN-α induction (*100%) mean” value was 0.52 *100%.

Turning to “Lipopolysaccharide [LPS, reference compound]”, the “IFN-α production in monocytes” value (24 hours) is “did not contribute to IFN-α production”.

Consider “agugggggac acacacacac acacacacac (AGUGGGGGACACACACACACACACACACAC; RNA, 5' {ppp}, backbone not given here) [SEQ ID No. 143]”, for which the “IFN-α-inducing activity conferred” value is listed as “highest IFN-α-inducing activity” and the “IFN-α induction (*100%) mean” value is 1.01 *100%.

Consider “agacggggac acacacacac acacacacac (AGACGGGGACACACACACACACACACACAC; RNA, 5' {ppp}, backbone not given here) [SEQ ID No. 116]”, for which the “IFN-α induction (*100%) mean” value was 0.62 *100%.

With “tri-GFPds: annealed dsRNA molecule of tri-GFPs (SEQ ID NO: 341) and tri-GFPa (SEQ ID NO: 348) (sense {ppp}-rGrGrGrGrCrUrGrArCrCrCrUrGrArArGrUrUrCrArUrCrUrU; antisense {ppp}-rGrGrGrGrArUrGrArArCrUrUrCrArGrGrGrUrCrArGrCrUrU; in vitro transcribed strands annealed as dsRNA)”, under “24 hours”, the “IFN-α production in monocytes” value is on record as “comparable levels of IFN-α”. Further, the “IFN-α inducing activity after cleavage of the 5′ overhang by RNAse T1” value (monocytes) is recorded as “completely abolished the IFN-α inducing activity”.

As to “auugggggac acacacacac acacacacac (AUUGGGGGACACACACACACACACACACAC; RNA, 5' {ppp}, backbone not given here) [SEQ ID No. 167]”, the “IFN-α-inducing activity conferred” value is on record as “highest IFN-α-inducing activity” and the “IFN-α induction (*100%) mean” value was 1.31 *100%.

For “aagcggggac acacacacac acacacacac (AAGCGGGGACACACACACACACACACACAC; RNA, 5' {ppp}, backbone not given here) [SEQ ID No. 157]”, the “IFN-α-inducing activity conferred” value is “highest IFN-α-inducing activity” and the “IFN-α induction (*100%) mean” value is 1.22 *100%.

As to “aaucggggac acacacacac acacacacac (AAUCGGGGACACACACACACACACACACAC; RNA, 5' {ppp}, backbone not given here) [SEQ ID No. 132]”, the “IFN-α induction (*100%) mean” value is listed as 0.94 *100%.

Turning to “aucaggggac acacacacac acacacacac (AUCAGGGGACACACACACACACACACACAC; RNA, 5' {ppp}, backbone not given here) [SEQ ID No. 160]”, the “IFN-α-inducing activity conferred” value is “highest IFN-α-inducing activity” and the “IFN-α induction (*100%) mean” value is 1.24 *100%.

In the case of “agcaggggac acacacacac acacacacac (AGCAGGGGACACACACACACACACACACAC; RNA, 5' {ppp}, backbone not given here) [SEQ ID No. 164]”, the “IFN-α-inducing activity conferred” value is given as “highest IFN-α-inducing activity” and the “IFN-α induction (*100%) mean” value was 1.29 *100%.

For “acguggggac acacacacac acacacacac (ACGUGGGGACACACACACACACACACACAC; RNA, 5' {ppp}, backbone not given here) [SEQ ID No. 125]”, the “IFN-α induction (*100%) mean” value is on record as 0.77 *100%.

In the case of “aaguggggac acacacacac acacacacac (AAGUGGGGACACACACACACACACACACAC; RNA, 5' {ppp}, backbone not given here) [SEQ ID No. 174]”, the “IFN-α-inducing activity conferred” value is given as “highest IFN-α-inducing activity” and the “IFN-α induction (*100%) mean” value was 1.40 *100%.

Regarding “auacggggac acacacacac acacacacac (AUACGGGGACACACACACACACACACACAC; RNA, 5' {ppp}, backbone not given here) [SEQ ID No. 139]”, the “IFN-α induction (*100%) mean” value is reported as 0.99 *100%.

Consider “aacgggggac acacacacac acacacacac (AACGGGGGACACACACACACACACACACAC; RNA, 5' {ppp}, backbone not given here) [SEQ ID No. 170]”, for which the “IFN-α-inducing activity conferred” value is “highest IFN-α-inducing activity” and the “IFN-α induction (*100%) mean” value is 1.34 *100%.

In the case of “agggggggac acacacacac acacacacac (AGGGGGGGACACACACACACACACACACAC; RNA, 5' {ppp}, backbone not given here) [SEQ ID No. 111]”, the “IFN-α induction (*100%) mean” value is recorded as 0.22 *100%.

Turning to “agaaggggac acacacacac acacacacac (AGAAGGGGACACACACACACACACACACAC; RNA, 5' {ppp}, backbone not given here) [SEQ ID No. 165]”, the “IFN-α-inducing activity conferred” value is on record as “highest IFN-α-inducing activity” and the “IFN-α induction (*100%) mean” value was 1.29 *100%.

As for “acagggggac acacacacac acacacacac (ACAGGGGGACACACACACACACACACACAC; RNA, 5' {ppp}, backbone not given here) [SEQ ID No. 150]”, the “IFN-α-inducing activity conferred” value was “highest IFN-α-inducing activity” and the “IFN-α induction (*100%) mean” value is reported as 1.12 *100%.

As to “aaccggggac acacacacac acacacacac (AACCGGGGACACACACACACACACACACAC; RNA, 5' {ppp}, backbone not given here) [SEQ ID No. 156]”, the “IFN-α-inducing activity conferred” value is “highest IFN-α-inducing activity” and the “IFN-α induction (*100%) mean” value is 1.20 *100%.

On to “agccggggac acacacacac acacacacac (AGCCGGGGACACACACACACACACACACAC; RNA, 5' {ppp}, backbone not given here) [SEQ ID No. 128]”, for which the “IFN-α induction (*100%) mean” value is recorded as 0.87 *100%.

For “5′-pppGGGAGACAGGGGGGGGGGGGGGGGGGGGGGG-3′ [tri-poly G]”, the “IFN-α production in monocytes” value (24 hours) is “equally potent”.

Take “augaggggac acacacacac acacacacac (AUGAGGGGACACACACACACACACACACAC; RNA, 5' {ppp}, backbone not given here) [SEQ ID No. 169]”: the “IFN-α-inducing activity conferred” value is reported as “highest IFN-α-inducing activity” and the “IFN-α induction (*100%) mean” value was 1.32 *100%.

Turning to “5′-PPPGGGAGACAGGCCCCCCCCCCCCCCCCCCCCC-3′ [tri-poly C]”, the “IFN-α production in monocytes” value (24 hours) is “equally potent”.

“accaggggac acacacacac acacacacac (ACCAGGGGACACACACACACACACACACAC; RNA, 5' {ppp}, backbone not given here) [SEQ ID No. 126]”: the “IFN-α induction (*100%) mean” value was 0.79 *100%.

“aaaaggggac acacacacac acacacacac (AAAAGGGGACACACACACACACACACACAC; RNA, 5' {ppp}, backbone not given here) [SEQ ID No. 121]”: the “IFN-α induction (*100%) mean” value is 0.73 *100%.

With “auucggggac acacacacac acacacacac (AUUCGGGGACACACACACACACACACACAC; RNA, 5' {ppp}, backbone not given here) [SEQ ID No. 144]”, the “IFN-α-inducing activity conferred” value is reported as “highest IFN-α-inducing activity” and the “IFN-α induction (*100%) mean” value was 1.03 *100%.

Turning to “aggcggggac acacacacac acacacacac (AGGCGGGGACACACACACACACACACACAC; RNA, 5' {ppp}, backbone not given here) [SEQ ID No. 131]”, the “IFN-α induction (*100%) mean” value is listed as 0.91 *100%.

Take “aguuggggac acacacacac acacacacac (AGUUGGGGACACACACACACACACACACAC; RNA, 5' {ppp}, backbone not given here) [SEQ ID No. 168]”: the “IFN-α-inducing activity conferred” value was “highest IFN-α-inducing activity” and the “IFN-α induction (*100%) mean” value was 1.32 *100%.

Source of the values: patent US9381208B2, “Structure and use of 5′ phosphate oligonucleotides” (Rheinische Friedrich-Wilhelms-Universität, priority 2006, dated 2016).
